Measurements: US20130064821A1, “METHODS AND COMPOSITIONS FOR TREATING PROSTATE CANCER” (priority 2007, published 2013)

Tests used:
[1] = system: LNCaP cells, secreted PSA; assay: PSA production and secretion study in LNCaP cells (Example 6, PSA ELISA); type: cell-based, human; conditions: 0.1 nM DHT, 120 hours, versus 5% CSS media alone
Procedure: A human hormone sensitive prostate cancer cell line, LNCaP (ATCC), was exposed to a polypeptide as described in Example 1. The effects of the polypeptide on the production and secretion of the prostate specific antigen, PSA, was then assessed.
The human prostate cancer cell line, LNCaP was obtained from American Type Tissue Collection (ATCC) and was routinely cultured in growth medium containing phenol red RPMI 1640 (Invitrogen, Auckland, New Zealand) supplemented with 10% fetal bovine serum (FBS, 15 GIBCO) and 1% antibiotic/antimycotic mixture (Invitrogen, Auckland, New Zealand). Cells were maintained at 37° C. in 5% CO2. Dilutions were made for the polypeptide (20 ng/ml) in 5% charcoal strip serum (CSS, HyClone) for in vitro experiments.
3×10^3 LNCaP cells were plated per well in quadruplicate in a Falcon 96-well plate and allowed to attach overnight at 5% CO2/37° C. in growth medium (as indicated above). The medium was replaced with fresh complete growth medium after 36 hours. […] After 120 hours in culture, cell culture media was collected from each well and PSA reading was measured in duplicate for each well. Human PSA was measured according to the manufacturers methodology using the PSA ELISA from Diagnostic Systems Laboratories (cat number: DSL-10-9700).
Data are presented as means unless otherwise indicated. Error bars represent the 95% confidence intervals.

[2] = system: LNCaP cells, secreted PSA; assay: PSA production and secretion study in LNCaP cells with T and DHT (Example 7, PSA ELISA); type: cell-based, human; conditions: 0.1 nM androgen, 120 hours, versus 5% CSS media alone, mean of 6 wells
Procedure: The effects of the polypeptide on the production and secretion of the prostate specific antigen, PSA, was then assessed.
The human prostate cancer cell line, LNCaP was obtained from American Type Tissue Collection (ATCC) and was routinely cultured in growth medium containing phenol red RPMI 1640 (Invitrogen, Auckland, New Zealand) supplemented with 10% fetal bovine serum (FBS, GIBCO) and 1% antibiotic/antimycotic mixture (Invitrogen, Auckland, New Zealand). Cells were maintained at 37° C. in 5% CO2. Dilutions were made for the polypeptide (20 ng/ml) in 5% charcoal strip serum (CSS, HyClone) for in vitro experiments.
3×10^3 LNCaP cells were plated per well in quadruplicate in a Falcon 96-well plate and allowed to attach overnight at 5% CO2/37° C. in growth medium (as indicated above). The medium was replaced with fresh complete growth medium after 36 hours. […] After 120 hours in culture, cell culture media was collected from each well and a PSA reading was measured in duplicate for each well. Human PSA was measured according to the manufacturers methodology using the PSA ELISA from Diagnostic Systems Laboratories (Cat number: DSL-10-9700).
Data are presented as means unless otherwise indicated.

[3] = target: T1, sex hormone binding globulin (SHBG) (Homo sapiens, UniProt P04278); conditions: serum, men; cited from earlier work
T1 sequence (P04278 30-402): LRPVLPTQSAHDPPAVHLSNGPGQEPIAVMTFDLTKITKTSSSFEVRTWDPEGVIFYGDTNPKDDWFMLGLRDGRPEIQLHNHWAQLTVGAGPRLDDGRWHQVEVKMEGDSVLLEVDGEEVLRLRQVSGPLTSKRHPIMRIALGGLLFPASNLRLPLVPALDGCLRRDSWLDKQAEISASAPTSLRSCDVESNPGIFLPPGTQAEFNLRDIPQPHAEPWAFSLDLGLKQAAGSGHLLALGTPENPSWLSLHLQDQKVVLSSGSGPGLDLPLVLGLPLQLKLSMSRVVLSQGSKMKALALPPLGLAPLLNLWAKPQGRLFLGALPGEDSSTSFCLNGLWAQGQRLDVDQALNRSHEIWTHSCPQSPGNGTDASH

albumin = albumin (Homo sapiens, UniProt P02768); conditions: serum, men; cited from earlier work
LNCaP cells = assay: In vitro growth proliferation study of LNCaP cells, calcein fluorescence assay; type: cell-based, human; conditions: nilutamide 0.1 μM, 5 days (120 hours), mean of six wells
Procedure: A human hormone sensitive prostate cancer cell line, LNCaP1 was exposed to the AR-LBD-IgG1 FC fusion protein as described in Example 1. The effects of the polypeptide on the growth and proliferation of the cells was then assessed.
In addition, LNCaP cells were also cultured in the presence of the non-steroidal antiandrogen nilutamide
The human prostate cancer cell line, LNCaP was obtained from American Type Tissue Collection (ATCC) and was routinely cultured in growth medium containing phenol red RPM1 1640 (Invitrogen, Auckland, New Zealand) supplemented with 10% fetal bovine serum (FBS1 G1BCO) and 1% antibiotic/antimycotic miyture (Invitrogen, Auckland, New Zealand). Cells were maintained at 37° C. in 5% CO2.
2×10^3 LNCaP cells were plated per well in a Falcon 96-well plate in 5% CO2/37° C. in growth medium in growth medium containing phenol red RPMI 1640 (Invitrogen, Auckland, New Zealand) supplemented with 10% fetal bovine serum (FBS, G1BCO) and 1% antibiotic/antimycotic mixture (Invitrogen, Auckland, New Zealand). Cells were treated with either AR-LBD IgG1 Fc fusion protein (12 ng/ml ) or IgG1 Fc control protein (12 ng/ml). […] Calcein positive cells were detected using a FLUOstar OPTIMA plate reader (BMG Labtech, Victoria, Australia). […]

Chain of albumin (P02768 25-609): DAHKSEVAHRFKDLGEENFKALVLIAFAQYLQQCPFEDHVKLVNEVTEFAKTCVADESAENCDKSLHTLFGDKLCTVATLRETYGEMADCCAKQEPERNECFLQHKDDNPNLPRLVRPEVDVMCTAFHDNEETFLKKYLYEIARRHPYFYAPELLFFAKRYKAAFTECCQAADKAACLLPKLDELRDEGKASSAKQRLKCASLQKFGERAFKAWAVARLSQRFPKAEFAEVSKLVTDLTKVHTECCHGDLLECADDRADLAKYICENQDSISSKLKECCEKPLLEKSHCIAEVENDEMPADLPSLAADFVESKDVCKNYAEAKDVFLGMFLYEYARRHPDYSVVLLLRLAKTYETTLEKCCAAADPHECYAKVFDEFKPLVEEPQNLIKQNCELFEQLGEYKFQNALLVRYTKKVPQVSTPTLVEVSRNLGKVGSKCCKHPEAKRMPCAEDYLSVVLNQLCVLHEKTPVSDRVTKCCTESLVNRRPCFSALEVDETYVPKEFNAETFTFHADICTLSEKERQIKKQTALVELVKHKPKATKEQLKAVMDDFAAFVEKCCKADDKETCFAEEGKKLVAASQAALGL

Structure (SMILES) | effect of androgen on secreted PSA [1] | effect of androgen on secreted PSA [2] | association constant (Ka) with SHBG [3] | association constant (Ka) with albumin (albumin) | reduction of prostate cancer cell proliferation (LNCaP cells) [%]
C[C@]12CCC(=O)C[C@@H]1CC[C@@H]1[C@@H]2CC[C@]2(C)[C@@H](O)CC[C@@H]12 [DHT, dihydrotestosterone] | significantly boost production of secreted PSA | strongly boost production of secreted PSA | – | – | –
C[C@]12CC[C@H]3[C@@H](CCC4=CC(=O)CC[C@@]43C)[C@@H]1CC[C@@H]2O [Testosterone, testosterone] | – | clearly increase production of PSA | about 1×10^9 L/mol | about 3×10^4 L/mol | –
CC1(C)NC(=O)N(c2ccc([N+](=O)[O-])c(C(F)(F)F)c2)C1=O [nilutamide] | – | – | – | – | 80
